From patent US20250074966A1, “AGENTS AND METHODS FOR PREVENTING OR INHIBITING ADAPTIVE IMMUNE RESPONSES ASSOCIATED WITH MULTIPLE SCLEROSIS” (Adaptive Biotechnologies Corporation, priority 2023, published 2025)

Tested on: ZO-1
Assay: Primary human T cells transfected with TCRs co-cultured overnight with HLA-DRB1*15:01 positive K562 target cells expressing antigen-encoding constructs, T cell activation via CD137 expression
Format: cell-based
Conditions: antigen-encoding construct delivered as IVT RNA to K562 cells

## MEETAIWEQHTVTLHRA [ZO-1]
  processing and presentation of the antigen by HLA-DRB1*15:01 positive target cells: processed and presented
